According to ChEMBL document CHEMBL5614376, “Discovery of MT-1207: A Novel, Potent Multitarget Inhibitor as a Promising Clinical Candidate for the Treatment of Hypertension” (J Med Chem, 2024):
Calls of active or inactive are those of the source. The rule behind the calls is not given here.

What was measured:
[1] = target: 5-hydroxytryptamine receptor 2A (Homo sapiens, UniProt P28223); assay: Displacement of [3H]Ketanserin from recombinant human 5-HT2A receptor extracted from CHO cell membrane incubated for 60 mins by radioligand binding assay; assay type: cell membranes
[2] = Tmax in Sprague-Dawley rat at 1 mg/kg, po measured for 24 hrs by UPLC/MS/MS analysis; assay type: ADME, organism-based; conditions: in vivo
[3] = Tmax in male Sprague-Dawley rat at 100 mg/kg, po qd treated for 13 weeks consecutively measured after recovery period on day 91 by UP/LC/MS/MS analysis; assay type: ADME, organism-based; conditions: in vivo, time 91 day
[4] = AUC (0 to t) in Sprague-Dawley rat at 1 mg/kg, po measured for 24 hrs by UPLC/MS/MS analysis; assay type: ADME, organism-based; conditions: in vivo
[5] = Cmax in male Sprague-Dawley rat at 10 mg/kg, po qd treated for 13 weeks consecutively measured after recovery period on day 91 by UP/LC/MS/MS analysis; assay type: ADME, organism-based; conditions: in vivo, time 91 day
Rattus norvegicus [6] = assay: Antihypertensive activity in 2K2C renovascular hypertensive Sprague-Dawley rat model assessed as systolic blood pressure at 10 mg/kg, po measured after 9 weeks (Rvb ~ 202 mmHg); assay type: functional
Rattus norvegicus [7] = assay: Effect on postural hypotension in Sprague-Dawley rat assessed as change in systolic blood pressure at 5 mg/kg, po treated for >30 mins followed by induction of postural hypotension measured 10 secs after postural change (reference value: 127 +/- 12 mmHg); assay type: functional; conditions: time > 30.17 min, 0.5028 h
Rattus norvegicus [8] = assay: Effect on serum creatinine level in 2K2C renovascular hypertensive Sprague-Dawley rat model at 10 mg/kg, po measured after 9 weeks by biochemical analysis; assay type: functional, organism-based
[9] = AUC (0 to t) in female Sprague-Dawley rat at 10 mg/kg, po measured on day 1 by UP/LC/MS/MS analysis; assay type: ADME, organism-based; conditions: in vivo, time 1 day
[10] = AUC (0 to t) in male Sprague-Dawley rat at 10 mg/kg, po measured on day 1 by UP/LC/MS/MS analysis; assay type: ADME, organism-based; conditions: in vivo, time 1 day
Rattus norvegicus [11] = assay: Effect on postural hypotension in Sprague-Dawley rat assessed as change in systolic blood pressure at 2.5 mg/kg, po treated for >30 mins followed by induction of postural hypotension measured immediately after postural change (reference value: 131 +/- 9 mmHg); assay type: functional; conditions: 0.5 h
[12] = Metabolic stability in human liver microsomes assessed as drug elimination at 10 umol/L incubated for 5 mins in presence of NADPH by LC-MS/MS analysis; assay type: ADME, Microsome; conditions: 10 µM, dose 10 µmol/L
[13] = Cmax in male Sprague-Dawley rat at 10 mg/kg, po measured on day 1 by UP/LC/MS/MS analysis; assay type: ADME, organism-based; conditions: in vivo, time 1 day
[14] = Half life in Sprague-Dawley rat at 9 mg/kg, po measured for 24 hrs by UPLC/MS/MS analysis; assay type: ADME, organism-based; conditions: in vivo
[15] = AUC (0 to t) in female Sprague-Dawley rat at 100 mg/kg, po measured on day 1 by UP/LC/MS/MS analysis; assay type: ADME, organism-based; conditions: in vivo, time 1 day
[16] = Cmax in male Sprague-Dawley rat at 100 mg/kg, po measured on day 1 by UP/LC/MS/MS analysis; assay type: ADME, organism-based; conditions: in vivo, time 1 day
[17] = Cmax in female Sprague-Dawley rat at 100 mg/kg, po measured on day 1 by UP/LC/MS/MS analysis; assay type: ADME, organism-based; conditions: in vivo, time 1 day
[18] = Apparent volume of distribution during terminal phase in Sprague-Dawley rat at 1 mg/kg, po measured for 24 hrs by UPLC/MS/MS analysis; assay type: ADME, organism-based; conditions: in vivo, read-out: Vz/F
[19] = AUC (0 to t) in Sprague-Dawley rat at 3 mg/kg, po measured for 24 hrs by UPLC/MS/MS analysis; assay type: ADME, organism-based; conditions: in vivo
Rattus norvegicus [20] = assay: Effect on postural hypotension in Sprague-Dawley rat assessed as change in systolic blood pressure at 10 mg/kg, po treated for >30 mins followed by induction of postural hypotension measured immediately after postural change (reference value: 131 +/- 9 mmHg); assay type: functional; conditions: 0.5 h
Rattus norvegicus [21] = assay: Effect on postural hypotension in Sprague-Dawley rat assessed as change in systolic blood pressure at 10 mg/kg, po treated for >30 mins followed by induction of postural hypotension measured 20 secs after postural change (reference value: 129 +/- 11 mmHg); assay type: functional; conditions: time > 30.33 min, 0.5055 h
[22] = AUC (0 to t) in Sprague-Dawley rat at 9 mg/kg, po measured for 24 hrs by UPLC/MS/MS analysis; assay type: ADME, organism-based; conditions: in vivo
Rattus norvegicus [23] = assay: Effect on postural hypotension in Sprague-Dawley rat assessed as change in systolic blood pressure at 10 mg/kg, po treated for >30 mins followed by induction of postural hypotension measured 60 secs after postural change (reference value: 127 +/- 10 mmHg); assay type: functional; conditions: time > 31 min
[24] = Cmax in female Sprague-Dawley rat at 10 mg/kg, po qd treated for 13 weeks consecutively measured after recovery period on day 91 by UP/LC/MS/MS analysis; assay type: ADME, organism-based; conditions: in vivo, time 91 day
[25] = Cmax in Sprague-Dawley rat at 1 mg/kg, iv measured for 24 hrs by UPLC/MS/MS analysis; assay type: ADME, organism-based; conditions: in vivo
[26] = Metabolic stability in macaque liver microsomes assessed as drug metabolism at 10 umol/L incubated upto 120 mins in presence of NADPH by LC-MS/MS analysis; assay type: ADME, Microsome; conditions: macaca, 2 h, 10 µM, dose 10 µmol/L
[27] = Tmax in male Sprague-Dawley rat at 10 mg/kg, po qd treated for 13 weeks consecutively measured after recovery period on day 91 by UP/LC/MS/MS analysis; assay type: ADME, organism-based; conditions: in vivo, time 91 day
Rattus norvegicus [28] = assay: Effect on postural hypotension in Sprague-Dawley rat assessed as change in systolic blood pressure at 10 mg/kg, po treated for >30 mins followed by induction of postural hypotension measured 3 secs after postural change (reference value: 124 +/- 10 mmHg); assay type: functional; conditions: time > 30.05 min, 0.5008 h
[29] = AUC (0 to t) in male Sprague-Dawley rat at 100 mg/kg, po qd treated for 13 weeks consecutively measured after recovery period on day 91 by UP/LC/MS/MS analysis; assay type: ADME, organism-based; conditions: in vivo, time 91 day
Rattus norvegicus [30] = assay: Effect on postural hypotension in Sprague-Dawley rat assessed as change in systolic blood pressure at 10 mg/kg, po treated for >30 mins followed by induction of postural hypotension measured 40 secs after postural change (reference value: 128 +/- 11 mmHg); assay type: functional; conditions: time > 30.67 min, 0.5112 h
[31] = Cmax in male Sprague-Dawley rat at 100 mg/kg, po qd treated for 13 weeks consecutively measured after recovery period on day 91 by UP/LC/MS/MS analysis; assay type: ADME, organism-based; conditions: in vivo, time 91 day
Rattus norvegicus [32] = assay: Effect on postural hypotension in Sprague-Dawley rat assessed as change in systolic blood pressure at 2.5 mg/kg, po treated for >30 mins followed by induction of postural hypotension measured 3 secs after postural change (reference value: 124 +/- 10 mmHg); assay type: functional; conditions: time > 30.05 min, 0.5008 h
Rattus norvegicus [33] = assay: Effect on postural hypotension in Sprague-Dawley rat assessed as change in systolic blood pressure at 5 mg/kg, po treated for >30 mins followed by induction of postural hypotension measured 60 secs after postural change (reference value: 127 +/- 10 mmHg); assay type: functional; conditions: time > 31 min

5-hydroxytryptamine receptor 2A, sequence (P28223 whole entry): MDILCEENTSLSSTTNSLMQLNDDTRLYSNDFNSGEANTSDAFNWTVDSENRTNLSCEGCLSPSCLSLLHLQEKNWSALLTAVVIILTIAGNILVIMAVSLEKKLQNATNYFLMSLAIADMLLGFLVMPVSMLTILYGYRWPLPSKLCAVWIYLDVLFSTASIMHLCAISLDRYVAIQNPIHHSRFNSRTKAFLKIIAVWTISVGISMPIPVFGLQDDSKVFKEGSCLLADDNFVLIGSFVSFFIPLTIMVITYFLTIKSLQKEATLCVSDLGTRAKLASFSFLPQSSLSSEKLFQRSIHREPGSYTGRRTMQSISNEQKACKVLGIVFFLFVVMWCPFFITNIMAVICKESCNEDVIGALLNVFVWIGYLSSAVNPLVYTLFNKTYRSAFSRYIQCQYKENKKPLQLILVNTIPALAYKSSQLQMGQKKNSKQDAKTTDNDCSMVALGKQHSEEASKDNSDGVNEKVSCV

`Cl.c1ccc2c(c1)nnn2CCCCN1CCN(c2nsc3ccccc23)CC1` showed an IC50 [1] of 270 pM, a Ki [1] of 79 pM and a Tmax [2] of 9.6 min. It also gave a Tmax [3] of 1.3 h, an AUC(0-t) at 24 h [4] of 51.7 ng·h/mL and a Cmax [5] of 36.2 ng/mL. The Activity (Rattus norvegicus [6]) was 169 mmHg, the Activity (Rattus norvegicus [7]) was 82 mmHg and the Activity (Rattus norvegicus [8]) was “Active”. For the same molecule, the AUC(0-t) at 24 h [9] was 344 ng·h/mL, the AUC(0-t) at 24 h [10] was 44.5 ng·h/mL and the Activity (Rattus norvegicus [11]) was 96 mmHg. For the same molecule, the Drug excretion [12] was “Active”, the Cmax [13] was 19.2 ng/mL and the half-life [14] was 1.89 h. It also gave an AUC(0-t) at 24 h [15] of 7910 ng·h/mL, a Cmax [16] of 347 ng/mL and a Cmax [17] of 1080 ng/mL. For the same molecule, the Vd/F [18] was 51.5 L, the AUC(0-t) at 24 h [19] was 421 ng·h/mL and the Activity (Rattus norvegicus [20]) was 89 mmHg. The Activity (Rattus norvegicus [21]) was 85 mmHg, the AUC(0-t) at 24 h [22] was 605 ng·h/mL and the Activity (Rattus norvegicus [23]) was 85 mmHg. The Cmax [24] was 140 ng/mL, the Cmax [25] was 468 ng/mL and the Drug metabolism [26] was “Metabolite_Detected”. It also gave a Tmax [27] of 1.3 h, an Activity (Rattus norvegicus [28]) of 81 mmHg and an AUC(0-t) at 2184 h [29] of 4790 ng·h/mL. It also gave an Activity (Rattus norvegicus [30]) of 85 mmHg, a Cmax [31] of 538 ng/mL and an Activity (Rattus norvegicus [32]) of 90 mmHg. It also gave an Activity (Rattus norvegicus [33]) of 83 mmHg.
